The source of these data is patent US10376468B2, “Block copolymers and self-assembling nanoparticles formed therefrom” (International Business Machines Corporation, priority 2017, dated 2019).

Structures are written as SMILES.

For this data set, the system named is nude BALB/c mice bearing subcutaneous PC-3 tumors. Kind of data set: Biodistribution of DiR-loaded mixed micelles, whole body live imaging. It is filed as in vivo. To be noted: tail-vein injection. The text has this:
To test the biodistribution of the micelles of the invention, DiR, a near-infrared fluorophore, was encapsulated in MM5D micelles and administered through tail-vein intravenous injection to nude BALB/c mice bearing subcutaneous PC-3 tumors. The in vivo real-time biodistribution of the fluorophore was studied by whole body live imaging at various time points over seven days. An equivalent amount of free DiR was similarly administered to a control group of mice.
The loading of DiR in MM5D micelles was carried out according to the DOX-loading protocol described above. Briefly, polymer (10 mg) and DiR (0.3 mg) were dissolved in DMSO (2 mL) and the mixture pipetted drop-by-drop into 10 mL of deionized water, with sonification for 10 minutes. The solution was dialyzed against deionized water for 48 hours, with the water changed at 3-, 6-, and 24-hours.
PC-3 cells (5 □ 106) suspended in Matrigel (1:1 ratio) were injected subcutaneously (200 μL) into the right flank of male BALB/c mice. Five weeks post-injection, when the tumor reached 5-7 mm in diameter, mice were treated with 8 mg/kg DiR-loaded mixed micelles via tail-vein injection or an equivalent amount of free DiR.
Whole-body fluorescence images were taken using Xenogen IVIS 100 with an ICG filter (excitation 710-760 nm, emission at 810-875 nm) at time points ranging from 30 minutes to 7-days post-administration. Anesthetized animals (n=3 for micelle formulation and n=2 for free DiR) were placed ion one lateral position on a heated plate (37° C.) for image acquisition with an exposure time set to 2 seconds. Tumors and organs were removed from sacrificed mice after 7-days post-administration and then imaged.

[1] abbreviates: organs removed 7-days post-administration.

Regarding `CCCCCCCCCCCCCCCCCCN1/C(=C/C=C/C=C/C=C/C2=[N+](CCCCCCCCCCCCCCCCCC)c3ccccc3C2(C)C)C(C)(C)c2ccccc21.[I-]` [free DiR], for the setting “8 mg/kg or equivalent free DiR”, the “DiR signal in the subcutaneous tumor at 48-hours post-injection” value is “Little or no signal” and the “Distribution of DiR fluorescence signal at 24-hours” value is “concentrated strongly in the liver”. Further, under setting [1], the “DiR signal in the tumor (FIG. 9, tumors and organs)” value is reported as “little or no signal in the tumor”; the “Tissues with strongest DiR signal (FIG. 9, tumors and organs)” value is “strongest signal in the lungs, liver, and spleen”.
